26 compounds from patent publication US20100298370A1, “BENZOTHIAZOLYL THIENOPYRIDINE DERIVATIVES AND USES THEREOF” (priority 2006, published 2010) can be followed below.

In general, inhibition refers to the share of the control response that was lost under treatment. Read a high inhibition as a response far below the control. The IC50 is the midpoint of a concentration-inhibition curve.

The target in this assay is T1, VEGF binding to heparin (HS-GAG) (Homo sapiens, UniProt P15692).
T1 construct: purchased Research and Development Systems
T1 sequence (P15692 27-191 isoform P15692-4): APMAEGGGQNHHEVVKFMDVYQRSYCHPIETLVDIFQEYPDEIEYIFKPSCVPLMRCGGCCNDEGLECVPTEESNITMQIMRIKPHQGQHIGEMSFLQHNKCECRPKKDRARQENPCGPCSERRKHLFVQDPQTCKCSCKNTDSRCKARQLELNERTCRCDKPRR
Kind of assay: In vitro VEGF to HS-GAG binding assay (ELISA, heparin-BSA coated plate). From the text:
An in vitro assay was used to assess the ability of test compounds of general formulas I and II to inhibit the interaction of VEGF with HS-GAGs. The assay was designed to for determine the concentration required for 50% inhibition (IC-50) for each specific compound. The test compounds were purchased from Life Chemicals Ltd. (Kiev, Ukraine), and the GAG used was heparin (heparin grade I-A; Sigma) conjugated to bovine serum albumin (Sigma) and diluted 1:200 in phosphate-buffered saline (PBS; pH 7.3). The heparin was added to a 96-well polystyrene ELISA plate (NUNC; 0.1 ml per well) and incubated overnight at 4° C. Following the incubation, the plate was washed thoroughly, by immersion, with de-ionized water and then with PBS (pH 7.3) containing Tween 20 (Sigma, 0.05%). The ELISA plate was then blocked with BSA (ICN, 3%, 200 μl per well) for 1 hour at room temperature. Following blocking, the plate was washed with de-ionized water, and then twice with PBS (pH 7.3) containing Tween 20. Recombinant human VEGF (Research and Development Systems) dissolved in PBS supplemented with BSA (0.1%) was added to the ELISA plate. The test compounds were dissolved in DMSO (MERCK), diluted in PBS and added to the wells at concentrations ranging from 0.01 to 200 μM to obtain a final volume 100 μl per well, and incubated for 60 minutes at room temperature with shaking. Following incubation, the plate was washed with de-ionized water and PBS (pH 7.3) containing Tween 20. Anti-human VEGF (1:2000; Research and Development Systems) diluted in PBS supplemented with BSA (1%) was added to the ELISA plate (100 per well) and incubated for 60 minutes at room temperature with shaking. Following incubation, the plate was washed with de-ionized water and then with PBS (pH 7.3) containing Tween 20. Streptavidin-HRP (1:200; Research and Development Systems Cat. No. DY998) diluted in PBS supplemented with BSA (1%) was added to the ELISA plate (100 per well) and incubated for 20 minutes at room temperature with shaking. The plate was then washed with de-ionized water and twice with PBS (pH 7.3) containing Tween 20. The peroxidase substrate chromogen tetramethyl benzidine (TMB; Dako) was added (100 μl per well) to the ELISA plate and incubated at room temperature. After 15 minutes, ELISA Stop Solution (hydrochloric acid 1N, sulfuric acid 3N) was added (100 μl per well) to stop the peroxidase catalyzed colorimetric reaction. The Optical Density (OD) of the samples was measured at 450 nm using an ELISA plate reader (Dynatech MR5000). Data were analyzed with Graphpad Prism software and IC-50 values were determined.
Percent inhibition at 30 μM concentration is shown and for selected compounds IC-50 was established.
(An ELISA detects its analyte on a solid surface through an enzyme-linked reagent.)

Turning to `CC(C)Oc1ccc(C(=O)Nc2sc3c(c2-c2nc4ccccc4s2)CCN(C)C3)cc1` [Compound 19, N-[3-(2-benzothiazolyl)-4,5,6,7-tetrahydro-6-methylthieno[2,3-c]pyridin-2-yl]-4-(1-methylethoxy)benzamide], the inhibition at 30 µM was 49%.

Compound `CCN1CCc2c(sc(NC(=O)c3ccc(OC)cc3)c2-c2nc3ccccc3s2)C1` [Compound 11, N-[3-(2-benzothiazolyl)-4,5,6,7-tetrahydro-6-ethylthieno[2,3-c]pyridin-2-yl]-4-methoxybenzamide] came in with an inhibition at 30 µM of 41%.

With `CN1CCc2c(sc(NC(=O)c3ccc4ncsc4c3)c2-c2nc3ccccc3s2)C1` [Compound 34, N-[3-(2-benzothiazolyl)-4,5,6,7-tetrahydro-6-methylthieno[2,3-c]pyridin-2-yl]-6-benzothiazolecarboxamide], the IC50 came to 200 nM and at 30 µM the inhibition was 77%.

As for `CN1CCc2c(sc(NC(=O)CCSc3ccc(F)cc3)c2-c2nc3ccccc3s2)C1` [Compound 12, N-[3-(2-benzothiazolyl)-4,5,6,7-tetrahydro-6-methylthieno[2,3-c]pyridin-2-yl]-3-[(4-fluorophenyl)thio]propanamide], the inhibition at 30 µM came out at 62%.

For `CCN1CCc2c(sc(NC(=O)c3cc(OC)c(OC)c(OC)c3)c2-c2nc3ccccc3s2)C1` [Compound 14, N-[3-(2-benzothiazolyl)-4,5,6,7-tetrahydro-6-ethylthieno[2,3-c]pyridin-2-yl]-(3,4,5-trimethoxy)benzamide], the IC50 amounted to 200 nM and the inhibition at 30 µM came out at 73%.

Turning to `O=C(Nc1sc2c(c1-c1nc3ccccc3s1)CCN(Cc1ccccc1)C2)c1cccs1` [Compound 23, N-[3-(2-benzothiazolyl)-4,5,6,7-tetrahydro-6-phenylmethylthieno[2,3-c]pyridin-2-yl]-2-thiophenecarboxamide], the inhibition at 30 µM turned out to be 57%.

`CCN1CCc2c(sc(NC(=O)c3cccc(N4C(=O)CCC4=O)c3)c2-c2nc3ccccc3s2)C1` [Compound 17, N-[3-(2-benzothiazolyl)-4,5,6,7-tetrahydro-6-ethylthieno[2,3-c]pyridin-2-yl]-3-(2,5-dioxo-1-pyrrolidinyl)benzamide] came in with an IC50 of 300 nM and an inhibition at 30 µM of 77%.

Take `O=C(Nc1sc2c(c1-c1nc3ccccc3s1)CCN(Cc1ccccc1)C2)c1cc(Cl)sc1Cl` [Compound 22, N-[3-(2-benzothiazolyl)-4,5,6,7-tetrahydro-6-phenylmethylthieno[2,3-c]pyridin-2-yl]-3-(2,5-dichloro)thiophenecarboxamide]: the inhibition at 30 µM is 39%.

As for `CCN1CCc2c(sc(NC(=O)c3cc4cc([N+](=O)[O-])ccc4s3)c2-c2nc3ccccc3s2)C1` [Compound 28, N-[3-(2-benzothiazolyl)-4,5,6,7-tetrahydro-6-ethylthieno[2,3-c]pyridin-2-yl]-benzo[b]thiophene-5-nitro-2-carboxamide], the inhibition at 30 µM amounted to 35%.

In turn, `CC(C)N1CCc2c(sc(NC(=O)C3CCCCC3)c2-c2nc3ccccc3s2)C1` [Compound 26, N-[3-(2-benzothiazolyl)-4,5,6,7-tetrahydro-6-(1-methylethyl)thieno[2,3-c]pyridin-2-yl]-cyclohexylcarboxamide] yielded an inhibition at 30 µM of 36%.

Turning to `CC(C)(C)C(=O)Nc1sc2c(c1-c1nc3ccccc3s1)CCN(Cc1ccccc1)C2` [Compound 21, N-[3-(2-benzothiazolyl)-4,5,6,7-tetrahydro-6-phenylmethyllthieno[2,3-c]pyridin-2-yl]-2,2-dimethylpropaneamide], the half-maximal inhibitory concentration (IC50) is 900 nM and the inhibition at 30 µM stood at 79%.

In the case of `COc1cc2ccccc2cc1C(=O)Nc1sc2c(c1-c1nc3ccccc3s1)CCN(C)C2` [Compound 15, N-[3-(2-benzothiazolyl)-4,5,6,7-tetrahydro-6-methylthieno[2,3-c]pyridin-2-yl]-3-methoxy-2-naphthalenecarboxamide], 30 µM produced 43% inhibition.

The compound `CC(C)N1CCc2c(sc(NC(=O)CCc3ccccc3)c2-c2nc3ccccc3s2)C1` [Compound 18, N-[3-(2-benzothiazolyl)-4,5,6,7-tetrahydro-6-(1-methylethyl)thieno[2,3-c]pyridin-2-yl]-3-benzenepropaneamide] had an inhibition at 30 µM of 44%.

The compound `O=C(COc1ccc(Cl)cc1)Nc1sc2c(c1-c1nc3ccccc3s1)CCN(Cc1ccccc1)C2` [Compound 27, N-[3-(2-benzothiazolyl)-4,5,6,7-3-tetrahydro-6-phenylmethylthieno[2,3-c]pyridin-2-yl]-2-(4-chlorophenoxy)acetamide] displayed an inhibition at 30 µM of 55%.

In the case of `COC(=O)c1ccc(C(=O)Nc2sc3c(c2-c2nc4ccccc4s2)CCN(C(C)C)C3)cc1` [Compound 20], the 50% inhibitory concentration (IC50) came out at 240 nM and the inhibition at 30 µM was found to be 77%.

Take `CC(C)N1CCc2c(sc(NC(=O)CN3C(=O)CCC3=O)c2-c2nc3ccccc3s2)C1` [Compound 31, N-[3-(2-benzothiazolyl)-4,5,6,7-tetrahydro-6-(methylethyl)thieno[2,3-c]pyridin-2-yl]-(2,5-dioxo-1-pyrrolidine)acetamide]: the inhibition at 30 µM is 37%.

`CC(=O)N1CCc2c(sc(NC(=O)c3cccc(Br)c3)c2-c2nc3ccccc3s2)C1` [Compound 36, N-[3-(2-benzothiazolyl)-4,5,6,7-tetrahydro-6-acetylthieno[2,3-c]pyridin-2-yl]-3-bromobenzamide] returned an inhibition at 30 µM of 31%.

As for `CC(=O)N1CCc2c(sc(NC(=O)c3ccc(C#N)cc3)c2-c2nc3ccccc3s2)C1` [Compound 37, N-[3-(2-benzothiazolyl)-4,5,6,7-tetrahydro-6-acetylthieno[2,3-c]pyridin-2-yl]-4-cyanobenzamide], the IC50 is 350 nM and 30 µM produced 75% inhibition.

Regarding `CCN1CCc2c(sc(NC(=O)CCSc3ccccc3)c2-c2nc3ccccc3s2)C1` [Compound 29, N-[3-(2-benzothiazolyl)-4,5,6,7-tetrahydro-6-ethylthieno[2,3-c]pyridin-2-yl]-3-(phenylthio)propanamide], the IC50 worked out at 1300 nM and the inhibition at 30 µM was 72%.

The compound `CN1CCc2c(sc(NC(=O)c3cc4c(ccc5ccccc54)oc3=O)c2-c2nc3ccccc3s2)C1` [Compound 32, N-[3-(2-benzothiazolyl)-4,5,6,7-tetrahydro-6-methylthieno[2,3-c]pyridin-2-yl]-3-oxo-3H-naphtho[2,1-b]pyran-2-carboxamide] came in with an inhibition at 30 µM of 31%.

Regarding `CN1CCc2c(sc(NC(=O)c3ccco3)c2-c2nc3ccccc3s2)C1` [Compound 25, N-[3-(2-benzothiazolyl)-4,5,6,7-tetrahydro-6-methylthieno[2,3-c]pyridin-2-yl]-2-furancarboxamide], the inhibition at 30 µM is 55%.

`CCN1CCc2c(sc(NC(=O)c3ccc(Cl)cc3)c2-c2nc3ccccc3s2)C1` [Compound 10, N-[3-(2-benzothiazolyl)-4,5,6,7-tetrahydro-6-ethylthieno[2,3-c]pyridin-2-yl]-(4-chloro)benzamide]: the inhibition at 30 µM is 71%.

In the case of `CCOC(=O)N1CCc2c(sc(NC(=O)c3ccccc3)c2-c2nc3ccccc3s2)C1` [Compound 35, N-[3-(2-benzothiazolyl)-4,5,6,7-tetrahydro-6-ethoxycarbonylthieno[2,3-c]pyridin-2-yl]benzamide], the inhibition at 30 µM was 37%.

Consider `COc1ccc(C(=O)Nc2sc3c(c2-c2nc4ccccc4s2)CCN(Cc2ccccc2)C3)c(OC)c1` [Compound 13, N-[3-(2-benzothiazolyl)-4,5,6,7-tetrahydro-6-phenylmethylthieno[2,3-c]pyridin-2-yl]-(2,4-dimethoxy)benzamide], for which the inhibition at 30 µM is 64%.

`CCN1CCc2c(sc(NC(=O)c3ccccc3)c2-c2nc3ccccc3s2)C1` [Compound 9, N-[3-(2-benzothiazolyl)-4,5,6,7-tetrahydro-6-ethylthieno[2,3-c]pyridin-2-yl]-benzamide] gave an IC50 of 500 nM and an inhibition at 30 µM of 70%.

`CCN1CCc2c(sc(NC(=O)CCS(=O)(=O)c3ccccc3)c2-c2nc3ccccc3s2)C1` [Compound 38, N-[3-(2-benzothiazolyl)-4,5,6,7-tetrahydro-6-ethylthieno[2,3-c]pyridin-2-yl]-3-(phenylsulfonyl)propanamide] returned an inhibition at 30 µM of 50%.
